Nine compounds from US20220370416A1, “COMPOUNDS AND METHODS FOR TARGETED DEGRADATION OF KRAS” (Arvinas Operations, Inc., priority 2020, published 2022) can be followed below.

The target of test [1] is T1, HiBit-KRAS^G12C (Homo sapiens, UniProt P01116, G12C). The test is described as follows: HiBit degradation assay in MiaPaCa-2 HiBit-KRas^G12C cells. It is filed as cell-based. Conditions: 24 hours; for Dmax: maximum degradation; for DC50: read-out: KRas^G12C-HiBiT (MiaPaCa; 0.5% DMSO) IC50. In a few lines: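 MiaPaCa-2 cells with CRISPR N-terminal HiBit knock-in on one endogenous KRAS^G12C allele, treated 24 hours at 37° C with compound titrated 10 μM to 20 nM (0.1% or 0.5% DMSO). Lytic HiBit luminescence normalized to DMSO, 4-parameter fit giving DC50 and Dmax; points cytotoxic to […] cells by alamar blue excluded.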

Test [2] addresses T1, HiBit-KRAS^G12C. Description: HiBit degradation assay in SW1573 HiBit-KRas^G12C cells. The test is classed as cell-based. Also on record: expressed in transfected cells; host or cells: SW1573 (clone E6), modified pcDNA3.1 vector, TK promoter. Conditions: 24 hours. In a few lines: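 SW1573 cells stably expressing N-terminally HiBit-tagged KRAS G12C, under the TK promoter, were treated 24 h at 37 °C with 10 μM to 20 nM compound in 0.1% or 0.5% DMSO. Residual HiBit luminescence normalised to DMSO and fitted with a 4-parameter model for DC50 and Dmax. Points with ≥50% viability loss (alamar blue) excluded.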
In general terms: With HiBiT, luminescence reflects the tagged protein that the partner subunit can reach.

Where [3] appears, read: MIA PaCa-2, MiaPaCa-2 HiBit-KRas^G12C cells, 0.5% DMSO, read-out: KRas^G12C-HiBiT (MiaPaCa; 0.5% DMSO) DMax.
The mark [4] stands for this setting: MiaPaCa-2 HiBit-KRas^G12C cells, 0.5% DMSO.
Setting [5] is: SW1573, SW1573 HiBit-KRas^G12C, 0.5% DMSO, read-out: KRas^G12C-HiBiT (SW1573; 0.5% DMSO) Dmax**.
Setting [6] is: read-out: KRas^G12C-HiBiT (SW1573; 0.5% DMSO) IC50***, SW1573 HiBit-KRas^G12C, 0.5% DMSO.
[7] abbreviates: SW1573 HiBit-KRas^G12C, 0.1% DMSO, read-out: KRas^G12C-HIBit (SW1573; 0.1% DMSO) DC50*.
Where [8] appears, read: MIA PaCa-2, read-out: KRas^G12C-HiBiT (MiaPaCa; 0.1% DMSO) DMax, MiaPaCa-2 HiBit-KRas^G12C cells, 0.1% DMSO.

Bounds are passed on as bounds.

T1 sequence (P01116 1-186 isoform P01116-2 G12C limits assumed): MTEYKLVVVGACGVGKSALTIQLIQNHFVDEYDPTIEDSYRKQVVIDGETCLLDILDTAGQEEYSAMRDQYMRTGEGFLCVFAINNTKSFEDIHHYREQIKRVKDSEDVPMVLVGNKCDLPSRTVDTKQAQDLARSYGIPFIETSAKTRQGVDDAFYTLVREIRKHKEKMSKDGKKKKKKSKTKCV

For `C=CC(=O)N1CCN(c2nc(N3CCN(C[C@H]4C[C@H](OCC(=O)N[C@H](C(=O)N5C[C@H](O)C[C@H]5C(=O)N[C@@H](C)c5ccc(-c6scnc6C)cc5)C(C)(C)C)C4)CC3)nc3c(F)c(-c4cc(O)cc5ccccc45)c(Cl)cc23)C[C@@H]1CC#N` [Compound 114, (2S,4R)-1-[(2S)-3,3-dimethyl-2-{2-[(1r,3r)-3-[(4-{6-chloro-4-[(3S)-3-(cyanomethyl)-4-(prop-2-enoyl)piperazin-1-yl]-8-fluoro-7-(3-hydroxynaphthalen-1-yl)quinazolin-2-yl}piperazin-1-yl)methyl]cyclobutoxy]acetamido}butanoyl]-4-hydroxy-N-[(1S)-1-[4-(4-methyl-1,3-thiazol-5-yl)phenyl]ethyl]pyrrolidine-2-carboxamide], the Dmax on HiBit-KRAS^G12C [1] (setting [3]) was below 35%; on HiBit-KRAS^G12C [2] (setting [5]) it was 35 to 70%. Moreover, the DC50 on HiBit-KRAS^G12C [1] (setting [4]) and at HiBit-KRAS^G12C [2] (setting [6]) was 0.1 to 1 µM each time.
With `C=CC(=O)N1CCN(c2nc(OCCN3CCC(COc4cc([C@H](C(=O)N5C[C@H](O)C[C@H]5C(=O)N[C@@H](C)c5ccc(-c6scnc6C)cc5)C(C)C)on4)CC3)nc3c(F)c(-c4cc(O)cc5ccccc45)c(Cl)cc23)CC1` (atropisomer, axis not shown) [Compound 146, (2S,4R)-1-[(2R)-2-(3-{[1-(2-{[6-chloro-8-fluoro-7-(3-hydroxynaphthalen-1-yl)-4-[4-(prop-2-enoyl)piperazin-1-yl]quinazolin-2-yl]oxy}ethyl)piperidin-4-yl]methoxy}-1,2-oxazol-5-yl)-3-methylbutanoyl]-4-hydroxy-N-[(1S)-1-[4-(4-methyl-1,3-thiazol-5-yl)phenyl]ethyl]pyrrolidine-2-carboxamide], at HiBit-KRAS^G12C [1] (setting [3]), the Dmax is 35 to 70%. Moreover, the DC50 at HiBit-KRAS^G12C [1] (setting [4]) and at HiBit-KRAS^G12C [2] (setting [6]) was above 1 µM in each case.
Take `C=CC(=O)N1CCN(c2nc(O[C@@H](C)CN3CCC(OCCOCC(=O)N[C@H](C(=O)N4C[C@H](O)C[C@H]4C(=O)N[C@@H](C)c4ccc(-c5scnc5C)cc4)C(C)(C)C)CC3)nc3c(F)c(-c4cc(O)cc5ccccc45)c(Cl)cc23)CC1` [Compound 67, (2S,4R)-1-[(2S)-2-{2-[2-({1-[(2S)-2-{[6-chloro-8-fluoro-7-(3-hydroxynaphthalen-1-yl)-4-[4-(prop-2-enoyl)piperazin-1-yl]quinazolin-2-yl]oxy}propyl]piperidin-4-yl}oxy)ethoxy]acetamido}-3,3-dimethylbutanoyl]-4-hydroxy-N-[(1S)-1-[4-(4-methyl-1,3-thiazol-5-yl)phenyl]ethyl]pyrrolidine-2-carboxamide]: the Dmax fell in the range of 35 to 70% on HiBit-KRAS^G12C [1] (MIA PaCa-2, MiaPaCa-2 HiBit-KRas^G12C cells, 0.1% DMSO, read-out: KRas^G12C-HiBiT (MiaPaCa; 0.1% DMSO) DMax); 35 to 70% at HiBit-KRAS^G12C [1] (setting [3]); 35 to 70% on HiBit-KRAS^G12C [2] (SW1573, SW1573 HiBit-KRas^G12C, 0.1% DMSO, read-out: KRas^G12C-HiBit (SW1573; 0.1% DMSO) Dmax**); 35 to 70% at HiBit-KRAS^G12C [2] (setting [5]). Moreover, the DC50 on HiBit-KRAS^G12C [2] (setting [7]) is 0.1 to 1 µM.
Consider `C=CC(=O)N1CCN(c2nc(OCCN3CCC(COCC(=O)N[C@H](C(=O)N4C[C@H](O)C[C@H]4C(=O)N[C@@H](C)c4ccc(-c5scnc5C)cc4)C(C)(C)C)CC3)nc3c(F)c(-c4c(C)ccc5[nH]ncc45)c(Cl)cc23)C[C@@H]1CC#N` [Compound 128, (2S,4R)-1-[(2S)-2-[2-({1-[2-({6-chloro-4-[(3S)-3-(cyanomethyl)-4-(prop-2-enoyl)piperazin-1-yl]-8-fluoro-7-(5-methyl-1H-indazol-4-yl)quinazolin-2-yl}oxy)ethyl]piperidin-4-yl}methoxy)acetamido]-3,3-dimethylbutanoyl]-4-hydroxy-N-[(1S)-1-[4-(4-methyl-1,3-thiazol-5-yl)phenyl]ethyl]pyrrolidine-2-carboxamide], for which the Dmax is 35 to 70% at HiBit-KRAS^G12C [1] (setting [3]) and above 70% at HiBit-KRAS^G12C [2] (setting [5]). The DC50 at HiBit-KRAS^G12C [1] (setting [4]) and at HiBit-KRAS^G12C [2] (setting [6]) was 0.1 to 1 µM throughout.
With `C=CC(=O)N1CCN(c2nc(OCCN3CCC(OCCOCC(=O)N[C@H](C(=O)N4C[C@@H](O)C[C@H]4C(=O)N[C@@H](C)c4ccc(-c5scnc5C)cc4)C(C)(C)C)CC3)nc3c(F)c(-c4cc(O)cc5ccccc45)c(Cl)cc23)C[C@@H]1CC#N` [Compound 7, (2S,4S)-1-[(2S)-2-{2-[2-({1-[2-({6-chloro-4-[(3S)-3-(cyanomethyl)-4-(prop-2-enoyl)piperazin-1-yl]-8-fluoro-7-(3-hydroxynaphthalen-1-yl)quinazolin-2-yl}oxy)ethyl]piperidin-4-yl}oxy)ethoxy]acetamido}-3,3-dimethylbutanoyl]-4-hydroxy-N-[(1S)-1-[4-(4-methyl-1,3-thiazol-5-yl)phenyl]ethyl]pyrrolidine-2-carboxamide], the Dmax on HiBit-KRAS^G12C [1] (setting [8]) fell in the range of 35 to 70%. The DC50 at HiBit-KRAS^G12C [2] (setting [7]) was above 1 µM.
For `Cc1ncsc1-c1ccc([C@H](C)NC(=O)[C@@H]2C[C@@H](O)CN2C(=O)[C@@H](NC(=O)COCC2CCN(CCOc3nc(N4CCN(C(=O)/C=C/CN(C)C)[C@@H](CC#N)C4)c4cc(Cl)c(-c5cc(O)cc6ccccc56)c(F)c4n3)CC2)C(C)(C)C)cc1` [Compound 165, (2S,4R)-1-[(2S)-2-[2-({1-[2-({6-chloro-4-[(3S)-3-(cyanomethyl)-4-[(2E)-4-(dimethylamino)but-2-enoyl]piperazin-1-yl]-8-fluoro-7-(3-hydroxynaphthalen-1-yl)quinazolin-2-yl}oxy)ethyl]piperidin-4-yl}methoxy)acetamido]-3,3-dimethylbutanoyl]-4-hydroxy-N-[(1S)-1-[4-(4-methyl-1,3-thiazol-5-yl)phenyl]ethyl]pyrrolidine-2-carboxamide], the Dmax at HiBit-KRAS^G12C [1] (setting [3]) and on HiBit-KRAS^G12C [2] (setting [5]) was 35 to 70% throughout. The DC50 on HiBit-KRAS^G12C [1] (setting [4]) is above 1 µM; on HiBit-KRAS^G12C [2] (setting [6]), 0.1 to 1 µM.
On to `C=CC(=O)N1CCN(c2nc(OCCN3CCC(C)(COCC(=O)N[C@H](C(=O)N4C[C@H](O)C[C@H]4C(=O)N[C@@H](C)c4ccc(-c5scnc5C)cc4)C(C)(C)C)CC3)nc3c(F)c(-c4cc(O)cc5ccccc45)c(Cl)cc23)C[C@@H]1CC#N` [Compound 149, (2S,4R)-1-[(2S)-2-[2-({1-[2-({6-chloro-4-[(3S)-3-(cyanomethyl)-4-(prop-2-enoyl)piperazin-1-yl]-8-fluoro-7-(3-hydroxynaphthalen-1-yl)quinazolin-2-yl}oxy)ethyl]-4-methylpiperidin-4-yl}methoxy)acetamido]-3,3-dimethylbutanoyl]-4-hydroxy-N-[(1S)-1-[4-(4-methyl-1,3-thiazol-5-yl)phenyl]ethyl]pyrrolidine-2-carboxamide], for which the Dmax on HiBit-KRAS^G12C [1] (setting [3]) and at HiBit-KRAS^G12C [2] (setting [5]) was above 70% throughout. The DC50 on HiBit-KRAS^G12C [1] (setting [4]) and at HiBit-KRAS^G12C [2] (setting [6]) was 0.1 to 1 µM in each case.
On to `C=CC(=O)N1CCN(c2nc(O[C@H](C)CN3CCC(C4CCN(CC(=O)N[C@H](C(=O)N5C[C@H](O)C[C@H]5C(=O)N[C@@H](C)c5ccc(-c6scnc6C)cc5)C(C)(C)C)CC4)CC3)nc3c(F)c(-c4cc(O)cc5ccccc45)c(Cl)cc23)CC1` [Compound 50, (2S,4R)-1-[(2S)-2-(2-{1′-[(2R)-2-{[6-chloro-8-fluoro-7-(3-hydroxynaphthalen-1-yl)-4-[4-(prop-2-enoyl)piperazin-1-yl]quinazolin-2-yl]oxy}propyl]-[4,4′-bipiperidin]-1-yl}acetamido)-3,3-dimethylbutanoyl]-4-hydroxy-N-[(1S)-1-[4-(4-methyl-1,3-thiazol-5-yl)phenyl]ethyl]pyrrolidine-2-carboxamide], for which the Dmax lay in the range of 35 to 70% at HiBit-KRAS^G12C [1] (setting [8]) and 35 to 70% at HiBit-KRAS^G12C [2] (SW1573, read-out: KRas^G12C-HiBit (SW1573; 0.1% DMSO) Dmax**, SW1573 HiBit-KRas^G12C, 0.1% DMSO). In addition, the DC50 on HiBit-KRAS^G12C [2] (setting [7]) is above 1 µM.
As to `C=C(F)C(=O)N1CCN(c2nc(OCCN3CCC(C)(COc4cc([C@@H](C(=O)N5C[C@H](O)C[C@H]5C(=O)N[C@@H](C)c5ccc(-c6scnc6C)cc5)C(C)C)on4)CC3)nc3c(F)c(-c4cc(O)cc5ccccc45)c(Cl)cc23)C[C@@H]1CC#N` (atropisomer, axis not shown) [Compound 126, (2S,4R)-1-[(2S)-2-[3-({1-[2-({6-chloro-4-[(3S)-3-(cyanomethyl)-4-(2-fluoroprop-2-enoyl)piperazin-1-yl]-8-fluoro-7-(3-hydroxynaphthalen-1-yl)quinazolin-2-yl}oxy)ethyl]-4-methylpiperidin-4-yl}methoxy)-1,2-oxazol-5-yl]-3-methylbutanoyl]-4-hydroxy-N-[(1S)-1-[4-(4-methyl-1,3-thiazol-5-yl)phenyl]ethyl]pyrrolidine-2-carboxamide], the DC50 on HiBit-KRAS^G12C [1] (setting [4]) and at HiBit-KRAS^G12C [2] (setting [6]) was above 1 µM in each case.
